Results on 19 compounds are retold here after US8940720B2, “Macrocycles as factor XIa inhibitors” (Bristol-Myers Squibb Company, priority 2010, dated 2015).

For orientation: Ki means a dissociation constant, usually derived from enzyme kinetics or from competition with a known ligand. The low end stands for tighter binding, the high end for weaker binding.

Data set [1] addresses purified human Factor XIa (Homo sapiens (Human), UniProt P03951). Briefly: Factor XIa enzyme inhibition assay (chromogenic substrate S-2366). Type of data set: biochemical. The following applies: substrate S-2366, pH 7.4. The procedure:
The effectiveness of compounds of the present invention as inhibitors of the coagulation Factors XIa, VIIa, IXa, Xa, XIIa, plasma kallikrein or thrombin, can be determined using a relevant purified serine protease, respectively, and an appropriate synthetic substrate. The rate of hydrolysis of the chromogenic or fluorogenic substrate by the relevant serine protease was measured both in the absence and presence of compounds of the present invention. […] A decrease in the rate of absorbance or fluorescence change in the presence of inhibitor is indicative of enzyme inhibition. Such methods are known to one skilled in the art. The results of this assay are expressed as the inhibitory constant, Ki.
Values of Ki were determined by allowing the protease to react with the substrate in the presence of the inhibitor. Reactions were allowed to go for periods of 20-180 minutes (depending on the protease) and the velocities (rate of absorbance or fluorescence change versus time) were measured. The following relationships were used to calculate Ki values: (vo−vs)/vs=I/(Ki(1+S/Km)) for a competitive inhibitor with one binding site; or vs/vo=A+((B−A)/1+((IC50/(I)n))); and Ki=IC50/(1+S/Km) for a competitive inhibitor where: […]

The conditions of data set [2]: from C=CCCC(=O)Nc1cc(NC(=O)OC)ccc1-c1nnc(Cl)cc1C(CC=C)NC(=O)OC(C)(C)C; rcm bond; 12-membered ring; Grubbs II (0.3 eq); DCM; 6.6 mM.

Where a name gives a salt, the structure may show the parent alone. Read-outs that look alike come from different tables or passages of the source. Bounds are passed on as bounds.

purified human Factor XIa, sequence (P03951 388-625): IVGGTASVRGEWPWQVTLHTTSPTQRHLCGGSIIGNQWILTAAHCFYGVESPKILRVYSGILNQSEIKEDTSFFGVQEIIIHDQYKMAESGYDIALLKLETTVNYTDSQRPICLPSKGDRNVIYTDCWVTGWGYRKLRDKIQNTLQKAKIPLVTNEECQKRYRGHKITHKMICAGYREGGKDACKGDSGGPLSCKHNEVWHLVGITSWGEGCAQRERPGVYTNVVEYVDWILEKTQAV
purified human Factor XIa, sequence (P03951 19-387 partner): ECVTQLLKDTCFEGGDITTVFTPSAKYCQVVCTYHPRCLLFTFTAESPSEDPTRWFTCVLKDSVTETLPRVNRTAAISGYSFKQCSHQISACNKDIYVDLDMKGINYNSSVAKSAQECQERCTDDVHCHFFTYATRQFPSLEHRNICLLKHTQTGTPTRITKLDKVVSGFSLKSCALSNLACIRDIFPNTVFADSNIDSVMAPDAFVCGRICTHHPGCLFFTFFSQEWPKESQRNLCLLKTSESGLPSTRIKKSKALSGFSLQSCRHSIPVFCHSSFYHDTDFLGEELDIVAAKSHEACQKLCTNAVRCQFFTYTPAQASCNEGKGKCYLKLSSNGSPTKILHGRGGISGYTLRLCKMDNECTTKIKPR

`COC(=O)Nc1ccc2c(c1)NC(=O)C/C=C/CC(NC(=O)OC(C)(C)C)c1cc-2nc(C)n1` (centres unmarked) came in with a ring closure, yield of all isomers (from C=CCC(=O)Nc1cc(NC(=O)OC)ccc1-c1cc(C(CC=C)NC(=O)OC(C)(C)C)nc(C)n1, rcm bond, Grubbs II, DCM, 0.5 mM, 40.0 °C, 4.0 h) of 22%.
The compound `CC(C)(C)OC(=O)N[C@H]1CC=CCCC(=O)Nc2ccccc2C2=NN=C1O2` (mixture of isomers) yielded a ring closure, yield of all isomers (from C=CCCC(=O)Nc1ccccc1-c1nnc([C@H](CC=C)NC(=O)OC(C)(C)C)o1, rcm bond, Grubbs II, DCM, 4.8 mM, 75.0 °C, 1.5 h) of 27%.
`COC(=O)Nc1ccc2c(c1)NC(=O)CCC=CC[C@H](NC(=O)OC(C)(C)C)c1cc-2ccn1` gave a ring closure, yield of all isomers (from C=CCCC(=O)Nc1cc(NC(=O)OC)ccc1-c1ccnc([C@H](CC=C)NC(=O)OC(C)(C)C)c1, rcm bond, Grubbs II, DCM, 0.99 mM, 40.0 °C, 1.5 h) of 75%.
Take `COC(=O)Nc1ccc2c(c1)NC(=O)CCC(C)=CC[C@H](NC(=O)OC(C)(C)C)c1nc-2cn1COCC[Si](C)(C)C`: the ring closure, yield of all isomers (from C=CC[C@H](NC(=O)OC(C)(C)C)c1nc(-c2ccc(NC(=O)OC)cc2NC(=O)CCC(=C)C)cn1COCC[Si](C)(C)C, rcm bond, Grubbs II, DCE, 105.0 mM, 120.0 °C, 0.33 h) was 34.6%.
Turning to `CC(C)(C)OC(=O)N[C@H]1CC=CCCOc2ccccc2-c2cn(COCC[Si](C)(C)C)c1n2`, where the note is “from C=CCCOc1ccccc1-c1cn(COCC[Si](C)(C)C)c([C@H](CC=C)NC(=O)OC(C)(C)C)n1, rcm bond, Grubbs II, DCM, 1.02 mM, 40.0 °C, 1.0 h”, the ring closure, yield of all isomers came to 29%.
In turn, `COC(=O)Nc1ccc2c(c1)NC(=O)CCN(C(=O)OC(C)(C)C)C[C@H](NC(=O)OCc1ccccc1)c1nc-2cn1COCC[Si](C)(C)C` returned a ring closure, yield of all isomers (from COC(=O)Nc1ccc(-c2cn(COCC[Si](C)(C)C)c([C@H](CN(CCC(=O)O)C(=O)OC(C)(C)C)NC(=O)OCc3ccccc3)n2)c(N)c1, amide bond, BOP, DCM, 0.93 mM, 25.0 °C, 5.0 h) of 87%.
`COC(=O)Nc1ccc2c(c1)CCCN(C)C(=O)C[C@H](NC(=O)OC(C)(C)C)c1nc-2cn1COCC[Si](C)(C)C` returned a ring closure, yield of all isomers (from CNCCCc1cc(NC(=O)OC)ccc1-c1cn(COCC[Si](C)(C)C)c([C@H](CC(=O)O)NC(=O)OC(C)(C)C)n1, amide bond, BOP, DCM, 8.64 mM, 25.0 °C, 2.0 h) of 39.4%.
In turn, `CC(C)(C)OC(=O)N[C@H]1CC=CCCCc2ccccc2-c2cn(COCC[Si](C)(C)C)c1n2` showed a ring closure, yield of all isomers (from C=CCCCc1ccccc1-c1cn(COCC[Si](C)(C)C)c([C@H](CC=C)NC(=O)OC(C)(C)C)n1, rcm bond, Grubbs II, DCM, 0.97 mM, 40.0 °C, 1.0 h) of 62.9%.
Under “from C=CC[C@H](NC(=O)OC(C)(C)C)c1nc(-c2ccc(NC(=O)OC)cc2N[C@H](CC=C)C(=O)OC)cn1COCC[Si](C)(C)C, rcm bond, Grubbs II, DCE, 40.0 mM, 120.0 °C, 0.33 h”, `COC(=O)Nc1ccc2c(c1)N[C@@H](C(=O)OC)CC=CC[C@H](NC(=O)OC(C)(C)C)c1nc-2cn1COCC[Si](C)(C)C` displayed a ring closure, yield of all isomers of 30%.
`COC(=O)c1ccc2c(c1)OCCNC(=O)CC(NC(=O)OC(C)(C)C)c1cc-2nnc1Cl` (centres unmarked) came in with a ring closure, yield of all isomers (from COC(=O)c1ccc(-c2cc(C(CC(=O)O)NC(=O)OC(C)(C)C)c(Cl)nn2)c(OCCN)c1, amide bond, BOP, DCM, 1.28 mM, 25.0 °C, 2.5 h) of 15.3%.
For the compound `Cc1cc(F)c(C(=O)N[C@H]2C/C=C/CCC(=O)Nc3cc(NC(=O)OCCN(C)C)ccc3-c3nc2[nH]c3Cl)c(F)c1` [Example I-183, [(E)-(S)-18-Chloro-15-(2,6-difluoro-4-methyl-benzoylamino)-9-oxo-8,17,19-triaza-tricyclo[14.2.1.0^2,7]nonadeca-1(18),2,4,6,12,16(19)-hexaen-5-yl]-carbamic acid 2-dimethylamino-ethyl ester, 2 TFA], the Ki in data set [1] worked out at 4950 nM.
The same measure, in the same setting: the same measure for `O=C(/C=C/c1cc(Cl)ccc1-n1cnnn1)N[C@H]1C/C=C/CCC(=O)Nc2ccc(F)cc2-c2nc1[nH]c2Cl` [Example I-227]: below 5 nM.
In turn, `COC(=O)Nc1ccc2c(c1)NC(=O)CC/C=C/CC(NC(=O)OC(C)(C)C)c1cc(Cl)nnc1-2` (centres unmarked) returned a ring closure, isolated yield in data set [2] of 56%. The compound also had a ring closure, yield of all isomers (from C=CCCC(=O)Nc1cc(NC(=O)OC)ccc1-c1nnc(Cl)cc1C(CC=C)NC(=O)OC(C)(C)C, rcm bond, Grubbs II, DCM, 6.6 mM, 40.0 °C, 1.0 h) of 56%.
In data set [1], `COC(=O)Nc1ccc2c(c1)CCCCCC[C@H](NC(=O)/C=C/c1cc(Cl)ccc1-n1cnnn1)c1nc-2c[nH]1` [Example 6, {(S)-14-[(E)-3-(5-Chloro-2-tetrazol-1-yl-phenyl)-acryloylamino]-16,18-diaza-tricyclo[13.2.1.0^2,7]octadeca-1(17),2,4,6,15(18)-pentaen-5-yl}-carbamic acid methyl ester] gave a Ki of 34 nM.
In data set [1], `COC(=O)Nc1ccc2c(c1)NC(=O)CC/C=C/C[C@H](NC(=O)c1ccc3c(c1)CCNC3)c1nc-2c[nH]1` [Example I-151] came in with a Ki below 5 nM.
In turn, `NC[C@H]1CC[C@H](C(=O)N[C@H]2C/C=C/CCCc3ccccc3-c3c[nH]c2n3)CC1` [Example 3] displayed a Ki in data set [1] of 6170 nM.
The same measure, in the same setting: the same measure for `COC(=O)Nc1ccc2c(c1)NS(=O)(=O)CC=CC[C@H](NC(=O)/C=C/c1cc(Cl)ccc1-n1cnnn1)c1nc-2c[nH]1` (stereo in doubt) [Example 19, {(E)-(S)-14-[(E)-3-(5-Chloro-2-tetrazol-1-yl-phenyl)-acryloylamino]-9,9-dioxo-9λ^6-thia-8,16,18-triaza-tricyclo[13.2.1.0^2,7]octadeca-1(17),2,4,6,11,15(18)-hexaen-5-yl}-carbamic acid methyl ester]: 96 nM; for `COC(=O)Nc1ccc2c(c1)NC(=O)CCCC[C@H](NC(=O)c1ccc(C(=N)N)cc1)c1nc-2c[nH]1` [Example I-4]: below 5 nM; for `COC(=O)Nc1ccc2c(c1)NC(=O)C(C)CCC[C@H](NC(=O)c1c(F)cc3c(ncn3C)c1F)c1nc-2c(Cl)[nH]1` (some centres unmarked) [Example I-57]: 6.6 nM.
